Test results from US7074829B2, “Antiestrogens, process for their production and their pharmaceutical use” (Schering AG, priority 1998, dated 2006).

System: uterus
Test: Uterus growth test in infant rats (antiestrogenic action)
Type: in vivo, rat
Conditions: inhibition compared to the estradiol benzoate (EB) control

SMILES | Antiuterotrophic Action at 0.3 mg s.c. [% Inhibition]
C[C@]12C[C@H](c3ccc(OCCCCC[S+]([O-])CCCC(F)(F)C(F)(F)F)cc3)[C@H](c3ccc(O)cc3)C[C@@H]1CC[C@@H]2O (stereo partly drawn) [Example 3, (1S,3S,4R,6S,9S)-9-Hydroxy-4-(4-hydroxyphenyl)-1-methyl-3-[4-(5-(4,4,5,5,5-pentafluoro-pentylsulfinyl)pentyloxy)phenyl]-bicyclo[4.3.0]nonane] | 37 % Inhibition
CC(=O)O[C@H]1CC[C@H]2C[C@@H](c3ccc(O)cc3)[C@@H](c3ccc(OCCCCC[S+]([O-])CCCC(F)(F)C(F)(F)F)cc3)C[C@@]21C (some centres unmarked) [Example 5] | 55 % Inhibition
